Test results: US20260266803A1, “Induced Pluripotent Stem Cell Model of Fibrous Dysplasia/Mccune-Albright Syndrome and Methods of Use” (The Regents of the University of California, priority 2023, published 2026)

System: GNAS^R201H iPSCs
Test: cAMP in iPSCs stimulated with the β-adrenergic receptor agonist isoproterenol
Type: cell-based, human
Conditions: 10 μM isoproterenol, N=6 in two different iPSC lines
Method: FIGS. 3A-3C. […] Representative of n=3. (FIG. 3B) Representative western blot of pluripotent and differentiated (DDX) iPSCs showing increased pCREB and pATF1, consistent with activation of the cAMP pathway. […] N=6 in two different iPSC lines.
Initial screens with a single dose (50 μM) in our GNAS iPSCs identified several compounds with potential as molecular tools ([…].B). We found candidates that inhibited Gsα^R201H but not WT (#46, 47, 43, 2). […] While not desirable for treating FD/MAS or GNAS hyperactivation, these may be useful for treating diseases of GNAS loss of function (e.g., Albright's hereditary osteodystrophy).

Q: How did the “differences in cAMP from baseline” value turn out when `CC(C)NCC(O)c1ccc(O)c(O)c1` (stereo not shown) [isoproterenol] was run?
A: Its value is “increased differences in cAMP from baseline”.
